Measured values from article PMC8876959, “Comparative Evaluation of Radiochemical and Biological Properties of ^131I- and [^99mTc]Tc(CO)3-Labeled RGD Analogues Planned to Interact with the αvβ3 Integrin Expressed in Glioblastoma” (Pharmaceuticals, 2022).

Key:
[1] = RP-HPLC retention time (used as an indication of hydrophobicity); assay type: physicochemical; conditions: C18 column, 0.1% TFA:H2O (A), 60% acetonitrile/0.1% TFA:H2O (B), 5-95% B in 30 min, 1.0 mL/min; radioactivity detector (slight delay versus UV signal)
Experimental: RP-HPLC analyzes were performed on a Proeminence LC-20A system (Shimadzu; Kyoto, Japan). The column selected was Vydac C18 150 × 4.6 mm, with a particle size of 5 μm, a pore size of 300 Å. Chromatograms were performed at λ = 220 nm. Peaks were eluted using solvent systems composed of 0.1% TFA:H2O as solvent A and 60% acetonitrile/0.1% TFA:H2O as solvent B, on a gradient of 5–95% of solvent B at a flow rate of 1.0 mL·min^−1 for 30 min (n = 3).
RP-HPLC analyzes were performed on a 1290 Infinity II UHPLC system (Agilent Technologies; Saint Clair, CA, USA) fitted with a radioactivity detector (Eckert & Ziegler; Berlin, Germany) and Open Lab ECM data system (Agilent Technologies; Saint Clair, CA, USA) to confirm the yield and purity of both radiolabeled peptides. Analyzes were performed using a Phenomenex C18 column (150 × […]; 5 µm particle size; 300 Å pore size), detection at λ = 220 nm, using 0.1% TFA:H2O as solvent A and 60% acetonitrile/0.1% TFA:H2O as solvent B. A gradient of 5% to 95% of solvent B in 30 min was used at a flow rate of 1.0 mL·min^−1.

[2] = Partition coefficient (n-octanol/water); assay type: physicochemical; conditions: shake-flask, n-octanol/water (1:1), vortexed, 1 h at rest, centrifuged; gamma counter; mean ± SD, n = 6 (method: n = 5)
Experimental: A fraction (100 μL) of the radiopeptide was added to a water/n-octanol (1:1) mixture. The mixture was vigorously vortexed and kept at rest for 1 h. Then, it was centrifuged at 1677× g for 5 min. Equal samples from both aqueous/organic phases were collected and their radioactivities were measured in an automatic Wizard 3 2480 gamma counter (Perkin Elmer; Norwalk, CT, USA) to determine log P values (n = 5).

C6 cells = test: In vitro specific binding to C6 cells (block with excess non-labeled peptide); assay type: cell-based, rat; conditions: 4 h
Experimental: The specific binding of the radiopeptides to C6 cells was evaluated in 12-well adherent plates, containing 2.0 × 10^5 cells per well. For the specific binding study (unblock), supplemented DMEM-F12 medium containing 1.66 nmol of the [^131I]I-GRGDYV or 8.88 nmol of the [^99mTc]Tc(CO) 3-GRGDHV was added in the wells. On the other hand, for the non-specific binding study (block), an excess of 1000× of the respective non-radiolabeled peptide (competitor) was added to the supplemented DMEM-F12 medium containing the radiopeptide in each well. In both cases, the plates were incubated at 37 °C in a humidified atmosphere containing 5% CO2 for 4 h and then, the supernatant was removed. Each well was washed with PBS, which was joined to the respective supernatant. Finally, the cells were removed by trypsinization and the contents were placed in microtubes. Each well was washed again with PBS, which was joined to the respective trypsinized cells. Cells and supernatants were counted in the above-mentioned automatic gamma counter.

[3] = tested on: normal rat brain homogenates (control); test: Binding and internalization in brain homogenate of normal rats; conditions: 37 °C, n = 7
Experimental: An aliquot containing 2 × 10^6 C6 cells in supplemented DMEM-F12 culture medium (450 µL) was added to a vial and incubated with 10 nmol of the radiolabeled peptide at 37 °C with gentle agitation. The studies were evaluated at 1, 4 and 24 h (n = 7 for each time point). Then, the vials were centrifuged (604× g for 5 min). The radioactivities of the pellet and supernatant were separately evaluated using an automatic Wizard 3 2480 gamma counter (Perkin Elmer; Norwalk, CT, USA). The percentage of the bound fraction was calculated by Equation (1). (1) % bound fraction=Pellet radioactivity (cpm)/Pellet radioactivity (cpm)+supernatant radioactivity (cpm)×100
In the sequence, a second radioactivity determination was performed. For that, pellets were resuspended using 0.5 mL of acid buffer (0.2 M acetic acid in 0.5 M NaCl solution; pH 2.8) and maintained at room temperature for 5 min to remove the radiolabeled molecule attached to the cell membrane surface. Then, the vials were centrifuged (1677× g for 5 min). The pellet and supernatant were separated and their radioactivities were measured using the above-mentioned automatic gamma counter. The percentage of the internalized fraction of radiopeptides was estimated based on the ratio between the activity contained in the precipitate and the supernatant and calculated by Equation (2):(2) % internalized fraction=Pellet radioactivity (cpm)/Pellet radioactivity (cpm)+supernatant radioactivity (cpm)×100
Brain homogenates were prepared at the concentration of ~10 mg of wet tissue in 1000 µL of PBS (pH 7.4). Normal brain tissue (control) and tumor-bearing brain tissue (model) were used. A 25 µL aliquot (1.2 MBq/nmol) of each radiopeptide was added to 200 µL of freshly prepared homogenates (n = 7). The homogenates containing the radiolabeled peptides were incubated at 37 °C for 1, 4 and 24 h. Binding and internalization fractions were determined as described in Section 3.11.

[4] = normal rat brain homogenate, 24 h

[^99mTc]Tc(CO)3-GRGDHV
RP-HPLC retention time (Rt), radiolabeled peptide [1]: 17.80 min
Log P [2]: −1.13 ± 0.14
Binding to C6 cells (unblock) (C6 cells; 2.0 × 10^5 cells per well, 37 °C, 1.66 nmol [131I]I-GRGDYV or 8.88 nmol [99mTc]Tc(CO)3-GRGDHV, mean ± SD): 0.61 ± 0.07%
Binding to C6 cells with excess of non-radiolabeled peptide (block) (C6 cells; 1000× excess of the respective non-radiolabeled peptide, 37 °C, mean ± SD): 0.33 ± 0.04%
Reduction of binding by excess of non-radiolabeled peptide (C6 cells; block versus unblock, C6 cells): ~ 46%
Bound fraction ([3]; normal rat brain homogenate (~10 mg/1000 µL PBS pH 7.4), 1 h): ~ 50%
Internalized fraction ([3]; normal rat brain homogenate, 1 h): ~ 63%
Bound fraction [3, 4]: ~ 65%
Internalized fraction [3, 4]: ~ 87%
